Results as given in PubChem BioAssay (NCI).
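All cell lines were grown in 96-well plates and treated with compound for 48 hours. TGI: concentration producing complete growth inhibition.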

Columns and labels:
Experiment in all cases: inhibition of tumour cell growth, NCI panel, 48 h
[1] = test system: EKVX NSCLC
[2] = test system: SW-620 colon
[3] = test system: SNB-78 CNS
[4] = test system: UO-31 renal
[5] = test system: SK-OV-3 ovarian
[6] = test system: 786-0 renal
[7] = test system: U251 CNS
[8] = test system: DMS 273 small cell lung
[9] = test system: HL-60(TB) leukemia
[10] = test system: HT29 colon
[11] = test system: UACC-62 melanoma
[12] = test system: SK-MEL-2 melanoma
[13] = test system: SNB-75 CNS
[14] = test system: ACHN renal
[15] = test system: OVCAR-4 ovarian
[16] = test system: DLD-1 colon
[17] = test system: DMS 114 small cell lung
[18] = test system: UACC-257 melanoma
[19] = test system: HOP-62 NSCLC
[20] = test system: SR leukemia
[21] = test system: M19-MEL melanoma
[22] = test system: COLO 205 colon
[23] = test system: HCT-15 colon
[24] = test system: SK-MEL-5 melanoma
[25] = test system: M14 melanoma
[26] = test system: MOLT-4 leukemia
[27] = test system: RPMI-8226 leukemia
[28] = test system: SNB-19 CNS
[29] = test system: TK-10 renal
[30] = test system: LXFL 529 NSCLC
[31] = test system: NCI-H23 lung
[32] = test system: K-562 leukemia
[33] = test system: A498 renal
[34] = test system: MALME-3M melanoma
[35] = test system: HCT-116 colon
[36] = test system: NCI-H226 lung
[37] = test system: RXF 393 renal
[38] = test system: RXF-631 renal
[39] = test system: CCRF-CEM leukemia
[40] = test system: KM20L2 colon
[41] = test system: KM12 colon
[42] = test system: HOP-18 NSCLC
[43] = test system: A549 NSCLC
[44] = test system: SK-MEL-28 melanoma
[45] = test system: SN12C renal
[46] = test system: SF-268 CNS
[47] = test system: HCC-2998 colon
[48] = test system: NCI-H522 lung
[49] = test system: IGROV1 ovarian
[50] = test system: OVCAR-3 ovarian
[51] = test system: CAKI-1 renal
[52] = test system: OVCAR-8 ovarian
[53] = test system: DU-145 prostate
[54] = test system: HS 578T breast
[55] = test system: MDA-MB-435
[56] = test system: NCI/ADR-RES ovarian
[57] = test system: XF 498 CNS
[58] = test system: MDA-N
[59] = test system: T-47D breast
[60] = test system: HOP-92 NSCLC
[61] = test system: SF-295 CNS
[62] = test system: BT-549 breast
[63] = test system: OVCAR-5 ovarian
[64] = test system: SF-539 CNS
[65] = test system: PC-3 prostate
[66] = test system: MCF7 breast
[67] = test system: NCI-H460 lung
[68] = test system: MDA-MB-231 breast
[69] = test system: LOX IMVI melanoma

Structure (SMILES): COc1cc2ccc(CC(=O)O)cc2cc1OC
- TGI [1]: > 100 µM
- TGI [2]: > 100 µM
- TGI [3]: > 100 µM
- TGI [4]: > 100 µM
- TGI [5]: > 100 µM
- TGI [6]: > 100 µM
- TGI [7]: > 100 µM
- TGI [8]: > 100 µM
- TGI [9]: > 100 µM
- TGI [10]: > 100 µM
- TGI [11]: > 100 µM
- TGI [12]: > 100 µM
- TGI [13]: > 100 µM
- TGI [14]: > 100 µM
- TGI [15]: > 100 µM
- TGI [16]: > 100 µM
- TGI [17]: > 100 µM
- TGI [18]: > 100 µM
- TGI [19]: > 100 µM
- TGI [20]: > 100 µM
- TGI [21]: > 100 µM
- TGI [22]: > 100 µM
- TGI [23]: > 100 µM
- TGI [24]: > 100 µM
- TGI [25]: > 100 µM
- TGI [26]: > 100 µM
- TGI [27]: > 100 µM
- TGI [28]: > 100 µM
- TGI [29]: > 100 µM
- TGI [30]: > 100 µM
- TGI [31]: > 100 µM
- TGI [32]: > 100 µM
- TGI [33]: > 100 µM
- TGI [34]: > 100 µM
- TGI [35]: > 100 µM
- TGI [36]: > 100 µM
- TGI [37]: > 100 µM
- TGI [38]: > 100 µM
- TGI [39]: > 100 µM
- TGI [40]: > 100 µM
- TGI [41]: > 100 µM
- TGI [42]: > 100 µM
- TGI [43]: > 100 µM
- TGI [44]: > 100 µM
- TGI [45]: > 100 µM
- TGI [46]: > 100 µM
- TGI [47]: > 100 µM
- TGI [48]: > 100 µM
- TGI [49]: > 100 µM
- TGI [50]: > 100 µM
- TGI [51]: > 100 µM
- TGI [52]: > 100 µM

Structure (SMILES): Cc1nc(Nc2ccc(Cl)c(Cl)c2)sc1C(/C=C/c1ccc2c(c1)OCO2)=N/Nc1ccc([N+](=O)[O-])cc1[N+](=O)[O-]
- TGI [1]: > 100 µM
- TGI [2]: > 100 µM
- TGI [3]: 25.9 µM
- TGI [4]: > 100 µM
- TGI [5]: > 100 µM
- TGI [6]: > 100 µM
- TGI [7]: > 100 µM
- TGI [8]: > 100 µM
- TGI [53]: > 100 µM
- TGI [9]: > 100 µM
- TGI [10]: > 100 µM
- TGI [11]: > 88 µM
- TGI [54]: > 100 µM
- TGI [12]: > 100 µM
- TGI [55]: > 100 µM
- TGI [13]: 32.8 µM
- TGI [14]: > 100 µM
- TGI [15]: > 100 µM
- TGI [56]: > 100 µM
- TGI [57]: > 48.8 µM
- TGI [16]: > 100 µM
- TGI [17]: > 100 µM
- TGI [58]: > 100 µM
- TGI [18]: > 100 µM
- TGI [19]: > 84 µM
- TGI [59]: > 100 µM
- TGI [20]: > 100 µM
- TGI [60]: > 100 µM
- TGI [21]: > 100 µM
- TGI [22]: > 100 µM
- TGI [61]: > 100 µM
- TGI [23]: > 100 µM
- TGI [24]: > 100 µM
- TGI [25]: > 100 µM
- TGI [62]: > 100 µM
- TGI [26]: > 56.2 µM
- TGI [63]: > 100 µM
- TGI [27]: > 100 µM
- TGI [28]: > 100 µM
- TGI [64]: > 91.6 µM
- TGI [29]: > 94.4 µM
- TGI [30]: > 100 µM
- TGI [31]: > 100 µM
- TGI [32]: > 100 µM
- TGI [33]: > 100 µM
- TGI [65]: > 100 µM
- TGI [34]: > 100 µM
- TGI [35]: > 100 µM
- TGI [36]: > 100 µM
- TGI [37]: 67.2 µM
- TGI [39]: > 100 µM
- TGI [66]: > 100 µM
- TGI [40]: > 100 µM
- TGI [41]: > 100 µM
- TGI [42]: > 100 µM
- TGI [67]: > 100 µM
- TGI [43]: > 100 µM
- TGI [68]: > 100 µM
- TGI [44]: > 100 µM
- TGI [45]: > 100 µM
- TGI [69]: > 100 µM
- TGI [46]: > 100 µM
- TGI [47]: > 100 µM
- TGI [48]: > 100 µM
- TGI [49]: > 100 µM
- TGI [50]: > 100 µM
- TGI [51]: > 46.4 µM
- TGI [52]: > 100 µM

Structure (SMILES): O=C1Cc2c([nH]c3ccccc23)-c2cc(Br)ccc2N1
- TGI [1]: > 100 µM
- TGI [2]: > 100 µM
- TGI [3]: > 100 µM
- TGI [4]: > 100 µM
- TGI [5]: > 100 µM
- TGI [6]: > 100 µM
- TGI [7]: > 100 µM
- TGI [8]: > 100 µM
- TGI [9]: > 100 µM
- TGI [10]: > 100 µM
- TGI [12]: > 100 µM
- TGI [13]: > 100 µM
- TGI [14]: > 100 µM
- TGI [15]: > 100 µM
- TGI [16]: > 100 µM
- TGI [17]: > 100 µM
- TGI [18]: > 100 µM
- TGI [19]: > 100 µM
- TGI [60]: > 100 µM
- TGI [21]: > 100 µM
- TGI [22]: > 100 µM
- TGI [61]: > 100 µM
- TGI [23]: > 100 µM
- TGI [24]: > 100 µM
- TGI [25]: > 100 µM
- TGI [26]: > 100 µM
- TGI [63]: > 100 µM
- TGI [27]: > 100 µM
- TGI [28]: > 100 µM
- TGI [64]: > 100 µM
- TGI [29]: > 100 µM
- TGI [30]: > 100 µM
- TGI [31]: > 100 µM
- TGI [32]: > 100 µM
- TGI [33]: > 100 µM
- TGI [34]: > 100 µM
- TGI [35]: > 100 µM
- TGI [36]: > 100 µM
- TGI [37]: > 100 µM
- TGI [38]: > 100 µM
- TGI [39]: > 100 µM
- TGI [40]: > 100 µM
- TGI [41]: > 100 µM
- TGI [42]: > 100 µM
- TGI [67]: > 100 µM
- TGI [43]: > 100 µM
- TGI [44]: > 100 µM
- TGI [45]: > 100 µM
- TGI [69]: > 100 µM
- TGI [46]: > 100 µM
- TGI [47]: > 100 µM
- TGI [48]: > 100 µM
- TGI [49]: > 100 µM
- TGI [50]: > 100 µM
- TGI [51]: > 100 µM
- TGI [52]: > 100 µM
